According to ChEMBL document CHEMBL1121849, “Synthetic antagonists of in vivo antidiuretic and vasopressor responses to arginine-vasopressin” (J Med Chem, 1981):
Starred links: 1 amine or outer side, 2 acyl side, 3 side chain; linkers in the order of their positions; H or OH if unused. Positions of bridges follow the written chain, without caps; N, C: chain ends. Non-standard residues stand in square brackets, D forms with d. Residues, ends and D or L forms follow the SMILES beside them. *: point of attachment. X1 = O=C(CC1(S[*:2])CCCCC1)[*:1]; iPr = CC(C)*

Experiments:
[1] = tested on: Rattus norvegicus; experiment: Tested in vivo for anti-vasopressor potency injected intraperitoneally in phenoxybenzamine-treated rats under urethane anesthesia; assay type: functional
[2] = tested on: Rattus norvegicus; experiment: Tested in vivo for antidiuretic potency injected intraperitoneally in rats under ethanol anesthesia; assay type: ADME, organism-based, Urine; conditions: ip
[3] = In vivo antidiuretic antagonistic activity expressed as negative logarithm of the effective dose divided by the estimated volume of distribution (67 mL/kg).; assay type: ADME, organism-based; conditions: Urine; read-out: pA2 (converted)
[4] = tested on: Rattus norvegicus; experiment: In vivo anti-vasopressor antagonistic activity expressed as negative logarithm of the effective dose divided by the estimated volume of distribution (67 mL/kg).; assay type: ADME, organism-based; conditions: read-out: pA2 (converted)

Row | Compound | ED [1] | ED [2] | Kb [3] | Kb [4]
1 | COc1ccc(C[C@@H]2NC(=O)CC3(CCCCC3)SSC[C@@H](C(=O)N3CCC[C@H]3C(=O)N[C@@H](CCCN=C(N)N)C(=O)NCC(N)=O)NC(=O)[C@H](CC(N)=O)NC(=O)[C@H](C(C)C)NC(=O)[C@H](Cc3ccccc3)NC2=O)cc1 (Y(Me)FVNCPRG-NH2; linker N-5 via X1) [listing 1 of 2 here] | 0.29 nM/kg | – | – | –
2 | CC(C)Oc1ccc(C[C@@H]2NC(=O)CC3(CCCCC3)SSC[C@@H](C(=O)N3CCC[C@H]3C(=O)N[C@H](CCCN=C(N)N)C(=O)NCC(N)=O)NC(=O)[C@H](CC(N)=O)NC(=O)[C@H](C(C)C)NC(=O)[C@H](Cc3ccccc3)NC2=O)cc1 (Y(iPr)FVNCP[dR]G-NH2; linker N-5 via X1) [listing 1 of 2 here] | 0.28 nM/kg | – | – | –
3 | CC(C)Oc1ccc(C[C@@H]2NC(=O)CC3(CCCCC3)SSC[C@@H](C(=O)N3CCC[C@H]3C(=O)N[C@@H](CCCN=C(N)N)C(=O)NCC(N)=O)NC(=O)[C@H](CC(N)=O)NC(=O)[C@H](C(C)C)NC(=O)[C@H](Cc3ccccc3)NC2=O)cc1 (Y(iPr)FVNCPRG-NH2; linker N-5 via X1) [listing 1 of 2 here] | 0.31 nM/kg | – | – | –
4 | COc1ccc(C[C@@H]2NC(=O)CC3(CCCCC3)SSC[C@@H](C(=O)N3CCC[C@H]3C(=O)N[C@H](CCCN=C(N)N)C(=O)NCC(N)=O)NC(=O)[C@H](CC(N)=O)NC(=O)[C@H](C(C)C)NC(=O)[C@H](Cc3ccccc3)NC2=O)cc1 (Y(Me)FVNCP[dR]G-NH2; linker N-5 via X1) [listing 1 of 2 here] | 0.28 nM/kg | – | – | –
5 | CC(C)Oc1ccc(C[C@@H]2NC(=O)CC3(CCCCC3)SSC[C@@H](C(=O)N3CCC[C@H]3C(=O)N[C@@H](CCCN=C(N)N)C(=O)NCC(N)=O)NC(=O)[C@H](CC(N)=O)NC(=O)[C@H](C(C)C)NC(=O)[C@H](Cc3ccccc3)NC2=O)cc1 (Y(iPr)FVNCPRG-NH2; linker N-5 via X1) [listing 2 of 2 here] | – | 3.6 nM/kg | 47.9 nM | 4.37 nM
6 | CCOc1ccc(C[C@@H]2NC(=O)CC3(CCCCC3)SSC[C@@H](C(=O)N3CCC[C@H]3C(=O)N[C@H](CCCN=C(N)N)C(=O)NCC(N)=O)NC(=O)[C@H](CC(N)=O)NC(=O)[C@H](C(C)C)NC(=O)[C@H](Cc3ccccc3)NC2=O)cc1 (Y(Et)FVNCP[dR]G-NH2; linker N-5 via X1) [listing 1 of 2 here] | 0.34 nM/kg | – | – | –
7 | COc1ccc(C[C@@H]2NC(=O)CC3(CCCCC3)SSC[C@@H](C(=O)N3CCC[C@H]3C(=O)N[C@H](CCCN=C(N)N)C(=O)NCC(N)=O)NC(=O)[C@H](CC(N)=O)NC(=O)[C@H](C(C)C)NC(=O)[C@H](Cc3ccccc3)NC2=O)cc1 (Y(Me)FVNCP[dR]G-NH2; linker N-5 via X1) [listing 2 of 2 here] | – | 15 nM/kg | 209 nM | 3.63 nM
8 | CCOc1ccc(C[C@@H]2NC(=O)CC3(CCCCC3)SSC[C@@H](C(=O)N3CCC[C@H]3C(=O)N[C@@H](CCCN=C(N)N)C(=O)NCC(N)=O)NC(=O)[C@H](CC(N)=O)NC(=O)[C@H](C(C)C)NC(=O)[C@H](Cc3ccccc3)NC2=O)cc1 (Y(Et)FVNCPRG-NH2; linker N-5 via X1) [listing 1 of 2 here] | 0.49 nM/kg | – | – | –
9 | CC(C)Oc1ccc(C[C@@H]2NC(=O)CC3(CCCCC3)SSC[C@@H](C(=O)N3CCC[C@H]3C(=O)N[C@H](CCCN=C(N)N)C(=O)NCC(N)=O)NC(=O)[C@H](CC(N)=O)NC(=O)[C@H](C(C)C)NC(=O)[C@H](Cc3ccccc3)NC2=O)cc1 (Y(iPr)FVNCP[dR]G-NH2; linker N-5 via X1) [listing 2 of 2 here] | – | 8.5 nM/kg | 132 nM | 3.89 nM
10 | COc1ccc(C[C@@H]2NC(=O)CC3(CCCCC3)SSC[C@@H](C(=O)N3CCC[C@H]3C(=O)N[C@@H](CCCN=C(N)N)C(=O)NCC(N)=O)NC(=O)[C@H](CC(N)=O)NC(=O)[C@H](C(C)C)NC(=O)[C@H](Cc3ccccc3)NC2=O)cc1 (Y(Me)FVNCPRG-NH2; linker N-5 via X1) [listing 2 of 2 here] | – | 3.1 nM/kg | 44.7 nM | 4.79 nM
11 | CCCOc1ccc(C[C@@H]2NC(=O)CC3(CCCCC3)SSC[C@@H](C(=O)N3CCC[C@H]3C(=O)N[C@H](CCCN=C(N)N)C(=O)NCC(N)=O)NC(=O)[C@H](CC(N)=O)NC(=O)[C@H](C(C)C)NC(=O)[C@H](Cc3ccccc3)NC2=O)cc1 [listing 1 of 2 here] | – | 14 nM/kg | 214 nM | 13.8 nM
12 | CCCOc1ccc(C[C@@H]2NC(=O)CC3(CCCCC3)SSC[C@@H](C(=O)N3CCC[C@H]3C(=O)N[C@@H](CCCN=C(N)N)C(=O)NCC(N)=O)NC(=O)[C@H](CC(N)=O)NC(=O)[C@H](C(C)C)NC(=O)[C@H](Cc3ccccc3)NC2=O)cc1 [listing 1 of 2 here] | 0.4 nM/kg | – | – | –
13 | CCOc1ccc(C[C@@H]2NC(=O)CC3(CCCCC3)SSC[C@@H](C(=O)N3CCC[C@H]3C(=O)N[C@@H](CCCN=C(N)N)C(=O)NCC(N)=O)NC(=O)[C@H](CC(N)=O)NC(=O)[C@H](C(C)C)NC(=O)[C@H](Cc3ccccc3)NC2=O)cc1 (Y(Et)FVNCPRG-NH2; linker N-5 via X1) [listing 2 of 2 here] | – | 1.9 nM/kg | 26.9 nM | 6.92 nM
14 | CCCOc1ccc(C[C@@H]2NC(=O)CC3(CCCCC3)SSC[C@@H](C(=O)N3CCC[C@H]3C(=O)N[C@H](CCCN=C(N)N)C(=O)NCC(N)=O)NC(=O)[C@H](CC(N)=O)NC(=O)[C@H](C(C)C)NC(=O)[C@H](Cc3ccccc3)NC2=O)cc1 [listing 2 of 2 here] | 1.1 nM/kg | – | – | –
15 | CCOc1ccc(C[C@@H]2NC(=O)CC3(CCCCC3)SSC[C@@H](C(=O)N3CCC[C@H]3C(=O)N[C@H](CCCN=C(N)N)C(=O)NCC(N)=O)NC(=O)[C@H](CC(N)=O)NC(=O)[C@H](C(C)C)NC(=O)[C@H](Cc3ccccc3)NC2=O)cc1 (Y(Et)FVNCP[dR]G-NH2; linker N-5 via X1) [listing 2 of 2 here] | – | 5.7 nM/kg | 79.4 nM | –
16 | CCCOc1ccc(C[C@@H]2NC(=O)CC3(CCCCC3)SSC[C@@H](C(=O)N3CCC[C@H]3C(=O)N[C@@H](CCCN=C(N)N)C(=O)NCC(N)=O)NC(=O)[C@H](CC(N)=O)NC(=O)[C@H](C(C)C)NC(=O)[C@H](Cc3ccccc3)NC2=O)cc1 [listing 2 of 2 here] | – | 3.5 nM/kg | 51.3 nM | 6.03 nM
